Where two headings read alike, the source gives them in different places.
Columns and labels:
bacteria = test: Checkerboard titration, synergy cases with conventional antibiotics (all tested bacteria); format: cell-based; details: in vitro, human AMPs
Procedure: (§1) According to checkerboard titration template, one component (A) of the combination was diluted along the rows of the plate, while the other (B) was diluted down the columns, thereby creating the variety of mixtures with different concentrations of tested compounds. 2.5 μl of corresponding solutions of the components A and B were added into each well of the plate. Into the first column and the last row the same amount of 10 mM sodium phosphate buffer, pH 7.4, containing 0.1% of BSA was introduced instead of the second component. Thus, all wells contained 5 μl of antimicrobial compounds solutions (solo or in combination). The same volume of bacterial suspension, prepared as described for microdilution assay, was added into each well. The results were recorded after the overnight incubation, visually indicating the presence or absence of the microbial growth in the corresponding wells. Based on the obtained data the isobolograms of combined action were plotted and/or Fractional Inhibitory Concentration Indices (FICI) were calculated. […] Depending on the minimal value of the FICI the combined effect of the combination was classified as antagonism (FICI > 2), independent action (1 < FICI ≤ 2), additivity (0.5 < FICI ≤ 1) or synergy (FICI ≤ 0.5), as is recommended in the literature and due to some drawbacks of the serial dilution method (Hsieh et al., [1993]; Orhan et al., [2005]; Fehri et al., [2007]). FICIs were assessed in 3–6 independent experiments and median values were used to define the nature of interaction.

M. luteus CIP A270 = format: cell-based, Micrococcus luteus
Procedure: as §1

MRSA ATCC 33591 = format: cell-based, Staphylococcus aureus
Procedure: as §1

[1] = system: A. baumannii (clin. isol.); format: cell-based, Acinetobacter baumannii; details: AMP in combination with GEN (gentamicin)
Procedure: According to checkerboard titration template, one component (A) of the combination was diluted along the rows of the plate, while the other (B) was diluted down the columns, thereby creating the variety of mixtures with different concentrations of tested compounds. 2.5 μl of corresponding solutions of the components A and B were added into each well of the plate. Into the first column and the last row the same amount of 10 mM sodium phosphate buffer, pH 7.4, containing 0.1% of BSA was introduced instead of the second component. Thus, all wells contained 5 μl of antimicrobial compounds solutions (solo or in combination). The same volume of bacterial suspension, prepared as described for microdilution assay, was added into each well. The results were recorded after the overnight incubation, visually indicating the presence or absence of the microbial growth in the corresponding wells. Based on the obtained data the isobolograms of combined action were plotted and/or Fractional Inhibitory Concentration Indices (FICI) were calculated. […] FICIs were assessed in 3–6 independent experiments and median values were used to define the nature of interaction.

E. coli ML-35p = format: cell-based, Escherichia coli
Procedure: as §1

[2] = AMP in combination with GEN (gentamicin)
[3] = AMP in combination with OX (oxacillin)
[4] = AMP in combination with PMB (polymyxin B)
[5] = AMP in combination with RIF (rifampicin)

| Molecule | AMP concentration in synergy cases with conventional antibiotics (bacteria) | Minimal FICI (M. luteus CIP A270; [2]) | Minimal FICI (M. luteus CIP A270; AMP in combination with OFL (ofloxacin)) | Minimal FICI (M. luteus CIP A270; [3]) | Minimal FICI (M. luteus CIP A270; [4]) | Minimal FICI (M. luteus CIP A270; [5]) | Minimal FICI (MRSA ATCC 33591; [2]) | Minimal FICI (MRSA ATCC 33591; [3]) | Minimal FICI (MRSA ATCC 33591; [4]) | Minimal FICI (MRSA ATCC 33591; [5]) | Minimal FICI [1] | Minimal FICI (E. coli ML-35p; [2]) | Minimal FICI (E. coli ML-35p; [4]) | Minimal FICI (E. coli ML-35p; [5]) |
| --- | --- | --- | --- | --- | --- | --- | --- | --- | --- | --- | --- | --- | --- | --- |
| CC[C@H](C)[C@H](NC(=O)[C@H](CCCCN)NC(=O)[C@H](CCC(=O)O)NC(=O)[C@H](CCCCN)NC(=O)[C@H](CO)NC(=O)[C@H](CCCCN)NC(=O)[C@H](CCCNC(=N)N)NC(=O)[C@H](Cc1ccccc1)NC(=O)[C@H](Cc1ccccc1)NC(=O)[C@H](CC(=O)O)NC(=O)CNC(=O)[C@H](CC(C)C)NC(=O)[C@@H](N)CC(C)C)C(=O)NCC(=O)N[C@@H](CCCCN)C(=O)N[C@@H](CCC(=O)O)C(=O)N[C@@H](Cc1ccccc1)C(=O)N[C@@H](CCCCN)C(=O)N[C@@H](CCCNC(=N)N)C(=O)N[C@H](C(=O)N[C@H](C(=O)N[C@@H](CCC(N)=O)C(=O)N[C@@H](CCCNC(=N)N)C(=O)N[C@H](C(=O)N[C@@H](CCCCN)C(=O)N[C@@H](CC(=O)O)C(=O)N[C@@H](Cc1ccccc1)C(=O)N[C@@H](CC(C)C)C(=O)N[C@@H](CCCNC(=N)N)C(=O)N[C@@H](CC(N)=O)C(=O)N[C@@H](CC(C)C)C(=O)N[C@H](C(=O)N1CCC[C@H]1C(=O)N[C@@H](CCCNC(=N)N)C(=O)N[C@H](C(=O)N[C@@H](CCC(=O)O)C(=O)N[C@@H](CO)C(=O)O)[C@@H](C)O)C(C)C)[C@@H](C)CC)C(C)C)[C@@H](C)CC [LL-37] | around 150 nM | – | – | – | – | – | – | – | – | – | – | – | – | – |
| Lysozyme: egg white lysozyme, antimicrobial protein, from BioChemica | – | 0.62 | 0.62 | 0.75 | 0.62 | 0.75 | 0.53 | 0.53 | 0.56 | 0.62 | 0.75 | 0.53 | 0.25 | 0.62 |
